{"source": "PubChem BioAssay (NCI)", "assay_in_all_cases": "growth of human tumour cells (NCI), 48 h", "key": {"786-0 renal": {"system": "786-0 renal"}, "A498 renal": {"system": "A498 renal"}, "A549 NSCLC": {"system": "A549 NSCLC"}, "ACHN renal": {"system": "ACHN renal"}, "BT-549 breast": {"system": "BT-549 breast"}, "CAKI-1 renal": {"system": "CAKI-1 renal"}, "CCRF-CEM leukemia": {"system": "CCRF-CEM leukemia"}, "COLO 205 colon": {"system": "COLO 205 colon"}, "DLD-1 colon": {"system": "DLD-1 colon"}, "DMS 114 small cell lung": {"system": "DMS 114 small cell lung"}, "DMS 273 small cell lung": {"system": "DMS 273 small cell lung"}, "DU-145 prostate": {"system": "DU-145 prostate"}, "EKVX NSCLC": {"system": "EKVX NSCLC"}, "HCC-2998 colon": {"system": "HCC-2998 colon"}, "HCT-116 colon": {"system": "HCT-116 colon"}, "HCT-15 colon": {"system": "HCT-15 colon"}, "HL-60(TB) leukemia": {"system": "HL-60(TB) leukemia"}, "HOP-62 NSCLC": {"system": "HOP-62 NSCLC"}, "HOP-92 NSCLC": {"system": "HOP-92 NSCLC"}, "HS 578T breast": {"system": "HS 578T breast"}, "HT29 colon": {"system": "HT29 colon"}, "IGROV1 ovarian": {"system": "IGROV1 ovarian"}, "K-562 leukemia": {"system": "K-562 leukemia"}, "KM12 colon": {"system": "KM12 colon"}, "KM20L2 colon": {"system": "KM20L2 colon"}, "LOX IMVI melanoma": {"system": "LOX IMVI melanoma"}, "LXFL 529 NSCLC": {"system": "LXFL 529 NSCLC"}, "M14 melanoma": {"system": "M14 melanoma"}, "M19-MEL melanoma": {"system": "M19-MEL melanoma"}, "MALME-3M melanoma": {"system": "MALME-3M melanoma"}, "MCF7 breast": {"system": "MCF7 breast"}, "MDA-MB-231 breast": {"system": "MDA-MB-231 breast"}, "MDA-MB-435": {"system": "MDA-MB-435"}, "MDA-N": {"system": "MDA-N"}, "MOLT-4 leukemia": {"system": "MOLT-4 leukemia"}, "NCI-H226 lung": {"system": "NCI-H226 lung"}, "NCI-H23 lung": {"system": "NCI-H23 lung"}, "NCI-H460 lung": {"system": "NCI-H460 lung"}, "NCI-H522 lung": {"system": "NCI-H522 lung"}, "NCI/ADR-RES ovarian": {"system": "NCI/ADR-RES ovarian"}, "OVCAR-3 ovarian": {"system": "OVCAR-3 ovarian"}, "OVCAR-4 ovarian": {"system": "OVCAR-4 ovarian"}, "OVCAR-5 ovarian": {"system": "OVCAR-5 ovarian"}, "OVCAR-8 ovarian": {"system": "OVCAR-8 ovarian"}, "PC-3 prostate": {"system": "PC-3 prostate"}, "RPMI-8226 leukemia": {"system": "RPMI-8226 leukemia"}, "RXF 393 renal": {"system": "RXF 393 renal"}, "SF-268 CNS": {"system": "SF-268 CNS"}, "SF-295 CNS": {"system": "SF-295 CNS"}, "SF-539 CNS": {"system": "SF-539 CNS"}, "SK-MEL-2 melanoma": {"system": "SK-MEL-2 melanoma"}, "SK-MEL-28 melanoma": {"system": "SK-MEL-28 melanoma"}, "SK-MEL-5 melanoma": {"system": "SK-MEL-5 melanoma"}, "SK-OV-3 ovarian": {"system": "SK-OV-3 ovarian"}, "SN12C renal": {"system": "SN12C renal"}, "SNB-19 CNS": {"system": "SNB-19 CNS"}, "SNB-75 CNS": {"system": "SNB-75 CNS"}, "SNB-78 CNS": {"system": "SNB-78 CNS"}, "SR leukemia": {"system": "SR leukemia"}, "SW-620 colon": {"system": "SW-620 colon"}, "T-47D breast": {"system": "T-47D breast"}, "TK-10 renal": {"system": "TK-10 renal"}, "U251 CNS": {"system": "U251 CNS"}, "UACC-257 melanoma": {"system": "UACC-257 melanoma"}, "UACC-62 melanoma": {"system": "UACC-62 melanoma"}, "UO-31 renal": {"system": "UO-31 renal"}, "XF 498 CNS": {"system": "XF 498 CNS"}}, "note": "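Five concentrations, 48 hours, 96-well plates. TGI is the concentration that stops growth completely.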", "data": [{"smiles": "C[N+](C)(C)CC1CCc2ccccc2C1=O", "note": "(configuration not stated)", "values": [{"measurement": "TGI", "setting": "786-0 renal", "result": 19.2, "unit": "µM"}, {"measurement": "TGI", "setting": "A498 renal", "result": 50.4, "unit": "µM"}, {"measurement": "TGI", "setting": "A549 NSCLC", "result": 52.3, "unit": "µM"}, {"measurement": "TGI", "setting": "ACHN renal", "result": 14.4, "unit": "µM"}, {"measurement": "TGI", "setting": "BT-549 breast", "result": 29.3, "unit": "µM"}, {"measurement": "TGI", "setting": "CAKI-1 renal", "result": 9.31, "unit": "µM"}, {"measurement": "TGI", "setting": "CCRF-CEM leukemia", "result": "> 37.9", "unit": "µM"}, {"measurement": "TGI", "setting": "COLO 205 colon", "result": 19.3, "unit": "µM"}, {"measurement": "TGI", "setting": "DLD-1 colon", "result": 17, "unit": "µM"}, {"measurement": "TGI", "setting": "DMS 114 small cell lung", "result": 31, "unit": "µM"}, {"measurement": "TGI", "setting": "DMS 273 small cell lung", "result": 15.1, "unit": "µM"}, {"measurement": "TGI", "setting": "DU-145 prostate", "result": 32.6, "unit": "µM"}, {"measurement": "TGI", "setting": "EKVX NSCLC", "result": 18.2, "unit": "µM"}, {"measurement": "TGI", "setting": "HCC-2998 colon", "result": 28.8, "unit": "µM"}, {"measurement": "TGI", "setting": "HCT-116 colon", "result": 18.9, "unit": "µM"}, {"measurement": "TGI", "setting": "HCT-15 colon", "result": 6.61, "unit": "µM"}, {"measurement": "TGI", "setting": "HL-60(TB) leukemia", "result": 27.1, "unit": "µM"}, {"measurement": "TGI", "setting": "HOP-62 NSCLC", "result": 49.2, "unit": "µM"}, {"measurement": "TGI", "setting": "HOP-92 NSCLC", "result": 15.9, "unit": "µM"}, {"measurement": "TGI", "setting": "HS 578T breast", "result": 35.4, "unit": "µM"}, {"measurement": "TGI", "setting": "HT29 colon", "result": 15.2, "unit": "µM"}, {"measurement": "TGI", "setting": "IGROV1 ovarian", "result": 28.7, "unit": "µM"}, {"measurement": "TGI", "setting": "K-562 leukemia", "result": 21.9, "unit": "µM"}, {"measurement": "TGI", "setting": "KM12 colon", "result": 24.8, "unit": "µM"}, {"measurement": "TGI", "setting": "KM20L2 colon", "result": 38.2, "unit": "µM"}, {"measurement": "TGI", "setting": "LOX IMVI melanoma", "result": 41.5, "unit": "µM"}, {"measurement": "TGI", "setting": "LXFL 529 NSCLC", "result": 8.54, "unit": "µM"}, {"measurement": "TGI", "setting": "M14 melanoma", "result": 17.9, "unit": "µM"}, {"measurement": "TGI", "setting": "M19-MEL melanoma", "result": 30.8, "unit": "µM"}, {"measurement": "TGI", "setting": "MALME-3M melanoma", "result": 3.68, "unit": "µM"}, {"measurement": "TGI", "setting": "MCF7 breast", "result": 5.62, "unit": "µM"}, {"measurement": "TGI", "setting": "MDA-MB-231 breast", "result": 15.8, "unit": "µM"}, {"measurement": "TGI", "setting": "MDA-MB-435", "result": 11, "unit": "µM"}, {"measurement": "TGI", "setting": "MDA-N", "result": 12.4, "unit": "µM"}, {"measurement": "TGI", "setting": "MOLT-4 leukemia", "result": 7.63, "unit": "µM"}, {"measurement": "TGI", "setting": "NCI-H226 lung", "result": 43.3, "unit": "µM"}, {"measurement": "TGI", "setting": "NCI-H23 lung", "result": 29.2, "unit": "µM"}, {"measurement": "TGI", "setting": "NCI-H460 lung", "result": 36.7, "unit": "µM"}, {"measurement": "TGI", "setting": "NCI-H522 lung", "result": 0.318, "unit": "µM"}, {"measurement": "TGI", "setting": "NCI/ADR-RES ovarian", "result": 42.1, "unit": "µM"}, {"measurement": "TGI", "setting": "OVCAR-3 ovarian", "result": 11.8, "unit": "µM"}, {"measurement": "TGI", "setting": "OVCAR-4 ovarian", "result": 9.67, "unit": "µM"}, {"measurement": "TGI", "setting": "OVCAR-5 ovarian", "result": 29.7, "unit": "µM"}, {"measurement": "TGI", "setting": "OVCAR-8 ovarian", "result": 33.5, "unit": "µM"}, {"measurement": "TGI", "setting": "PC-3 prostate", "result": 29.1, "unit": "µM"}, {"measurement": "TGI", "setting": "RPMI-8226 leukemia", "result": 18.4, "unit": "µM"}, {"measurement": "TGI", "setting": "RXF 393 renal", "result": 29.6, "unit": "µM"}, {"measurement": "TGI", "setting": "SF-268 CNS", "result": 47.4, "unit": "µM"}, {"measurement": "TGI", "setting": "SF-295 CNS", "result": 49.2, "unit": "µM"}, {"measurement": "TGI", "setting": "SF-539 CNS", "result": 29.9, "unit": "µM"}, {"measurement": "TGI", "setting": "SK-MEL-2 melanoma", "result": 31.2, "unit": "µM"}, {"measurement": "TGI", "setting": "SK-MEL-28 melanoma", "result": 16.9, "unit": "µM"}, {"measurement": "TGI", "setting": "SK-MEL-5 melanoma", "result": 29.7, "unit": "µM"}, {"measurement": "TGI", "setting": "SK-OV-3 ovarian", "result": 32.8, "unit": "µM"}, {"measurement": "TGI", "setting": "SN12C renal", "result": 16.3, "unit": "µM"}, {"measurement": "TGI", "setting": "SNB-19 CNS", "result": 28.9, "unit": "µM"}, {"measurement": "TGI", "setting": "SNB-75 CNS", "result": 30.7, "unit": "µM"}, {"measurement": "TGI", "setting": "SNB-78 CNS", "result": 49.4, "unit": "µM"}, {"measurement": "TGI", "setting": "SR leukemia", "result": 9.23, "unit": "µM"}, {"measurement": "TGI", "setting": "SW-620 colon", "result": 3.34, "unit": "µM"}, {"measurement": "TGI", "setting": "T-47D breast", "result": 26.2, "unit": "µM"}, {"measurement": "TGI", "setting": "TK-10 renal", "result": 30.5, "unit": "µM"}, {"measurement": "TGI", "setting": "U251 CNS", "result": 10.2, "unit": "µM"}, {"measurement": "TGI", "setting": "UACC-257 melanoma", "result": 27.1, "unit": "µM"}, {"measurement": "TGI", "setting": "UACC-62 melanoma", "result": 12, "unit": "µM"}, {"measurement": "TGI", "setting": "UO-31 renal", "result": 32.7, "unit": "µM"}, {"measurement": "TGI", "setting": "XF 498 CNS", "result": 5.56, "unit": "µM"}]}]}
